Source: US10485880B2, “Antibody-drug conjugates (ADCs) of KSP inhibitors with aglycosylated anti-TWEAKR antibodies” (Bayer Pharma Aktiengesellschaft, priority 2015, dated 2019)

Tests used:
NCI-H292 cells = experiment: Cytotoxicity of metabolites, MTT assay, NCI-H292; assay type: cell-based, human
Description: NCI-H292: human mucoepidermoid lung carcinoma cells, ATCC-CRL-1848, standard medium: RPMI 1640 (Biochrom; #FG1215, stab. glutamine)+10% FCS (Biochrom; #S0415), TWEAKR-positive, EGFR-positive.
The cells were cultivated according to the standard method using the growth media listed under C-1. The test is carried out by detaching the cells with a solution of Accutase in PBS (Biochrom AG #L2143), pelleting, resuspending in culture medium, counting and sowing into a 96-well culture plate with white bottom (Costar #3610) (NCI H292: 2500 cells/well, KPL-4: 1200 cells/well, LoVo: 1000 cells/well in a total volume of 100 μl). The cells were then incubated in an incubator at 37° C. and 5% carbon dioxide. After 48 h, the medium was replaced. The metabolites in 10 μl of culture medium in concentrations from 10^−5M to 10^−13M were then pipetted to the cells (in triplicate), and the assay was then incubated in an incubator at 37° C. and 5% carbon dioxide. […] To this end, the MTT reagent was incubated with the cells for 4 h, followed by lysis of the cells overnight by addition of the detergent. The dye formed was detected at 570 nm (Infinite M1000 pro, Tecan). The measured data were used to calculate the IC50 of the growth inhibition using the DRC (dose response curve). […]

TWEAKR = target: T1, TWEAKR (Homo sapiens, UniProt Q9NP84); experiment: Agonistic activity of anti-TWEAKR antibodies; assay type: cell-based
T1 construct: endogenous in cells; host or cells: HT29 (also WiDr, A253, NCI-H322, 786-O)
T1 sequence (Q9NP84 28-129): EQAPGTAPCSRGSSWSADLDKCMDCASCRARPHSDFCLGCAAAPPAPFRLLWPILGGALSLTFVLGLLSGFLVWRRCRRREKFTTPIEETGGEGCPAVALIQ
Source text: In this regard, one embodiment of the invention is the provision of antibodies or antigen-binding antibody fragments thereof binding specifically to a TWEAKR at a new epitope, distinguished by selective binding to aspartate (D) at position 47 (D47) of TWEAKR (SEQ ID NO: 169; see also FIG. 1). The identified dependencies of certain TWEAKR amino acids for antibody interaction correlate with the agonistic activity determined for these antibodies. […] Thus, TWEAK binds to a similar, but distinguishable binding site (FIG. 7). Accordingly, the antibodies of the present invention, which show strong agonistic activity, bind to a new epitope (as a function of D47) which is associated with very strong agonistic activity.

CC(C)(C)[C@H](c1cc(-c2cc(F)ccc2F)cn1Cc1ccccc1)N(CC[C@H](N)C(=O)NCCNC(=O)CNC(=O)CC(SC[C@H](N)C(=O)O)C(=O)O)C(=O)CO (stereo partly drawn) [Example M2-1, 4-[(2-{[2-({(2S)-2-Amino-4-[{(1R)-1-[1-benzyl-4-(2,5-difluorophenyl)-1H-pyrrol-2-yl]-2,2-dimethylpropyl}(glycoloyl)amino]butanoyl}amino)ethyl]amino}-2-oxoethyl)amino]-2-{[(2R)-2-amino-2-carboxyethyl]sulphanyl}-4-oxobutanoic acid/trifluoroacetic acid (1:1)]
IC50 (NCI-H292 cells; 96 h incubation): 265 nM

CC(C)(C)[C@H](c1cc(-c2cc(F)ccc2F)cn1Cc1ccccc1)N(CCCN)C(=O)CO [Example M9, N-(3-Aminopropyl)-N-{(1R)-1-[1-benzyl-4-(2,5-difluorophenyl)-1H-pyrrol-2-yl]-2,2-dimethylpropyl}-2-hydroxyacetamide]
IC50 (NCI-H292 cells; Homo sapiens, NCI-H292, 96 h incubation): 0.924 nM

B1: PLD-192: "PLD-192 shows moderate agonistic activity and binds as a function of R56 to the cysteine-rich domain, but opposite of the TWEAK ligand site" (antibody, chains of the INN, looked up, V domains shown)
VH: EVQLVESGGGLVQPGGSLRLSCAASGFTFSSYWMSWVRQAPGKGLEWVAEIRLKSDNYATHYAESVKGRFTISRDDSKNSLYLQMNSLRAEDTAVYYCTGYYADAMDYWGQGTLVTVSS
VL: DIQMTQSPSSLSASVGDRVTITCRASQSVSTSSYSYMHWYQQKPGKAPKLLIKYASNLESGVPSRFSGSGSGTDFTLTISSLQPEDFATYYCQHSWEIPYTFGGGTKVEIK
Agonistic activity (TWEAKR): moderate agonistic activity
